Source: US20250290117A1, “MOLECULAR PHENOTYPIC ANTIMICROBIAL SUSCEPTIBILITY TESTING” (priority 2024, published 2025)

Columns and labels:
E. coli = experiment: Molecular phenotypic antimicrobial susceptibility test, specimen with two detected pathogens incubated together without isolation; format: cell-based, Escherichia coli; details: E. coli in specimen with two detected pathogens (E. coli and M. morganii) incubated together; for Ct of Sensitive Breakpoint: Ct of controls (average) 15.93; for Molecular Antimicrobial Susceptibility Result: at sensitive breakpoint
Procedure: Detection of Molecular Phenotypic Antimicrobial Susceptibility. Disclosed herein are the methods for the detection of phenotypic antimicrobial susceptibility via molecular methods. The present invention describes how a specimen 100 with a known microbial load is incubated and then exposed to a panel of antimicrobial agents to determine sensitivity (prevention of growth) or resistance (allowance of growth) to the specific antimicrobial agents tested utilizing molecular methods.
Sample Collection. Specimens 100 are collected from patients using sterile collection processes that are employed in routine clinical care. Specimens are transported to the testing facility in boric acid preservative. Specimens 100 are subsequently divided into a first sample 104 and a second sample 108.
Preparation of the Specimens for Testing. The specimens 100 are put through a pathogen identification process using PCR technology (e.g., using the first sample 104). The process for pathogen isolation includes steps of harvesting the pathogen (e.g., via centrifugation), isolating pathogen DNA via a DNA isolation and/or purification kit, and performing PCR on the pathogen DNA via PCR components (e.g., primers, enzymes, buffers) as would be known to the skilled artisan. Simultaneously, an additional aliquot of the same specimen (e.g., the second sample 108) is placed with liquid culture media and incubated for 4-6 hours. This aliquot is used for antimicrobial susceptibility testing if indicated based on the pathogen detection results. After pathogen identification is completed and if more than 10,000 cells/mL of bacteria (e.g., eligible bacteria) are detected in the source specimen, the second sample 108 then enters the antimicrobial susceptibility phase of testing. Specimens 100 with lower pathogen loads could also be utilized in the antibiotic susceptibility phase of testing with or without a longer incubation period.
Preparation of Antimicrobial Susceptibility Testing Plates. Antimicrobial solutions are prepared at known concentrations. The specific antimicrobials and their concentrations are selected based on the pathogen of interest and the described antimicrobial resistance breakpoints for that specimen pathogen and antimicrobial combination. These antimicrobials have been selected based on those commonly utilized by healthcare providers in routine clinical care for the specific type of suspected infection. The number and types of antimicrobials utilized can be customized based on the infection source, pathogen detected, patient-specific factors such as allergies or other health conditions (e.g., chronic kidney disease or concurrent medication use), or healthcare provider preferences such as antimicrobial availability or cost.
The antimicrobial solutions are prepared in liquid culture media (such as Muller Hinton Broth) to achieve the desired antimicrobial concentration and are then stored at −80° C. until use. For a given specimen, each antimicrobial is tested at a single or multiple antimicrobial concentration(s) which is its established breakpoints for sensitivity. The antimicrobial solutions are prepared and plated out for each specific pathogen. This allows ease of use on the day of testing after defrosting the plate 112. Table 1, which illustrates the results of molecular phenotypic antimicrobial susceptibility testing when more than one organism is present in the source specimen, provides an example of an antimicrobial plate 112 prepared for this purpose. Of note, control wells containing only culture media are present on all plates 112. This allows for evaluation of pathogen load when no antimicrobial is present.
Specimen Exposure to Antimicrobial Agents. The 1 mL aliquot of the specimen 100 previously mixed with culture media and incubated is obtained. Using optical density measurements as a guide, the specimen 100 is diluted to 0.5 McFarland. […]

pathogen of the specimen = experiment: Molecular phenotypic antimicrobial susceptibility test with direct PCR at various incubation timepoints (Table 7); format: cell-based
Method in brief: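 Specimens with known microbial load are cultured, diluted to 0.5 McFarland using optical density, then exposed to antimicrobials prepared in liquid culture media (e.g., Muller Hinton Broth) at their established sensitivity breakpoint concentrations. After incubation, samples are lysed with buffer in a thermal cycler and analyzed by direct semi-quantitative PCR, with antimicrobial-free control wells serving as the susceptibility threshold.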

[1] = E. coli isolate 1189, antibiotic incubation time 4 hours
[2] = E. coli isolate 1189, antibiotic incubation time 4 hours, control average Ct […]
[3] = E. coli isolate 1189, antibiotic incubation time 6 hours
[4] = E. coli isolate 1189, antibiotic incubation time 6 hours, control average Ct 16.992
[5] = E. coli isolate 1189, antibiotic incubation time 8 hours
[6] = E. coli isolate 1189, antibiotic incubation time 8 hours, control average Ct […]
[7] = E. coli isolate 1189, antibiotic incubation time 10 hours
[8] = E. coli isolate 1189, antibiotic incubation time 10 hours, control average Ct 15.995
[9] = E. coli isolate 1189, antibiotic incubation time 12 hours
[10] = E. coli isolate 1189, antibiotic incubation time 12 hours, control average Ct 15.495
[11] = E. coli isolate 1189, antibiotic incubation time 14 hours
[12] = E. coli isolate 1189, antibiotic incubation time 14 hours, control average Ct 15.826
[13] = E. coli isolate 1189, antibiotic incubation time 16 hours
[14] = E. coli isolate 1189, antibiotic incubation time 16 hours, control average Ct 14.880

Compound | Ct of Sensitive Breakpoint (E. coli) | Molecular Antimicrobial Susceptibility Result (E. coli) | Molecular Antimicrobial Susceptibility Result (pathogen of the specimen; [1]) | Ct at Sensitive Breakpoint (pathogen of the specimen; [2]) | Molecular Antimicrobial Susceptibility Result (pathogen of the specimen; [3]) | Ct at Sensitive Breakpoint (pathogen of the specimen; [4]) | Molecular Antimicrobial Susceptibility Result (pathogen of the specimen; [5]) | Ct at Sensitive Breakpoint (pathogen of the specimen; [6]) | Molecular Antimicrobial Susceptibility Result (pathogen of the specimen; [7]) | Ct at Sensitive Breakpoint (pathogen of the specimen; [8]) | Molecular Antimicrobial Susceptibility Result (pathogen of the specimen; [9]) | Ct at Sensitive Breakpoint (pathogen of the specimen; [10]) | Molecular Antimicrobial Susceptibility Result (pathogen of the specimen; [11]) | Ct at Sensitive Breakpoint (pathogen of the specimen; [12]) | Molecular Antimicrobial Susceptibility Result (pathogen of the specimen; [13]) | Ct at Sensitive Breakpoint (pathogen of the specimen; [14])
C[C@@H](O)[C@H]1C(=O)N2C(C(=O)O)=C(S[C@@H]3CN[C@H](C(=O)N(C)C)C3)[C@H](C)[C@H]12 [Meropenem] | 25.70 | Sensitive (Antimicrobial wells with pathogen load detected below the control wells (typically >2 cycle thresholds later) may be reported as Sensitive) | Sensitive (Antimicrobial wells with pathogen load detected below the control wells (typically >2 cycle thresholds later) may be reported as Sensitive) | 22.751 | Sensitive (Antimicrobial wells with pathogen load detected below the control wells (typically >2 cycle thresholds later) may be reported as Sensitive) | 22.884 | Sensitive (Antimicrobial wells with pathogen load detected below the control wells (typically >2 cycle thresholds later) may be reported as Sensitive) | 23.187 | Sensitive (Antimicrobial wells with pathogen load detected below the control wells (typically >2 cycle thresholds later) may be reported as Sensitive) | 23.901 | Sensitive (Antimicrobial wells with pathogen load detected below the control wells (typically >2 cycle thresholds later) may be reported as Sensitive) | 26.014 | Sensitive (Antimicrobial wells with pathogen load detected below the control wells (typically >2 cycle thresholds later) may be reported as Sensitive) | 26.211 | Sensitive (Antimicrobial wells with pathogen load detected below the control wells (typically >2 cycle thresholds later) may be reported as Sensitive) | 27.457
O=C1CN(/N=C/c2ccc([N+](=O)[O-])o2)C(=O)N1 [Nitrofurantoin] | 27.36 | Sensitive (Antimicrobial wells with pathogen load detected below the control wells (typically >2 cycle thresholds later) may be reported as Sensitive) | Sensitive (Antimicrobial wells with pathogen load detected below the control wells (typically >2 cycle thresholds later) may be reported as Sensitive) | 27.265 | Sensitive (Antimicrobial wells with pathogen load detected below the control wells (typically >2 cycle thresholds later) may be reported as Sensitive) | 27.430 | Sensitive (Antimicrobial wells with pathogen load detected below the control wells (typically >2 cycle thresholds later) may be reported as Sensitive) | 28.823 | Sensitive (Antimicrobial wells with pathogen load detected below the control wells (typically >2 cycle thresholds later) may be reported as Sensitive) | 27.170 | Sensitive (Antimicrobial wells with pathogen load detected below the control wells (typically >2 cycle thresholds later) may be reported as Sensitive) | 26.777 | Sensitive (Antimicrobial wells with pathogen load detected below the control wells (typically >2 cycle thresholds later) may be reported as Sensitive) | 26.788 | Sensitive (Antimicrobial wells with pathogen load detected below the control wells (typically >2 cycle thresholds later) may be reported as Sensitive) | 24.548
Gentamicin | 17.37 | Resistant | Sensitive (Antimicrobial wells with pathogen load detected below the control wells (typically >2 cycle thresholds later) may be reported as Sensitive) | 24.224 | Sensitive (Antimicrobial wells with pathogen load detected below the control wells (typically >2 cycle thresholds later) may be reported as Sensitive) | 25.270 | Sensitive (Antimicrobial wells with pathogen load detected below the control wells (typically >2 cycle thresholds later) may be reported as Sensitive) | 25.454 | Sensitive (Antimicrobial wells with pathogen load detected below the control wells (typically >2 cycle thresholds later) may be reported as Sensitive) | 25.318 | Sensitive (Antimicrobial wells with pathogen load detected below the control wells (typically >2 cycle thresholds later) may be reported as Sensitive) | 25.018 | Sensitive (Antimicrobial wells with pathogen load detected below the control wells (typically >2 cycle thresholds later) may be reported as Sensitive) | 24.069 | Sensitive (Antimicrobial wells with pathogen load detected below the control wells (typically >2 cycle thresholds later) may be reported as Sensitive) | 24.816
Piperacillin/Tazobactam | 27.51 | Sensitive (Antimicrobial wells with pathogen load detected below the control wells (typically >2 cycle thresholds later) may be reported as Sensitive) | Sensitive (Antimicrobial wells with pathogen load detected below the control wells (typically >2 cycle thresholds later) may be reported as Sensitive) | 20.904 | Sensitive (Antimicrobial wells with pathogen load detected below the control wells (typically >2 cycle thresholds later) may be reported as Sensitive) | 21.624 | Sensitive (Antimicrobial wells with pathogen load detected below the control wells (typically >2 cycle thresholds later) may be reported as Sensitive) | 21.570 | Sensitive (Antimicrobial wells with pathogen load detected below the control wells (typically >2 cycle thresholds later) may be reported as Sensitive) | 22.310 | Sensitive (Antimicrobial wells with pathogen load detected below the control wells (typically >2 cycle thresholds later) may be reported as Sensitive) | 22.359 | Sensitive (Antimicrobial wells with pathogen load detected below the control wells (typically >2 cycle thresholds later) may be reported as Sensitive) | 24.257 | Sensitive (Antimicrobial wells with pathogen load detected below the control wells (typically >2 cycle thresholds later) may be reported as Sensitive) | 24.143
